This is an account of results in ChEMBL document CHEMBL4715867, “Amycolasporins and Dibenzoyls from Lichen-Associated Amycolatopsis hippodromi and Their Antibacterial and Anti-inflammatory Activities” (J Nat Prod, 2020).

Assay [1] concerns RAW264.7. Put plainly: Inhibition of LPS-induced NO production in mouse RAW264.7 cells preincubated for 2 hrs followed by LPS-stimulation and measured after 24 hrs by Griess reagent based assay. In kind it is functional, cell-based. The conditions noted are these: dose 3.3-33 µM, time 26.0 hrs.
Assay [2] deals with RAW264.7. Put plainly: Inhibition of LPS-induced NO production in mouse RAW264.7 cells assessed as reduction in iNOS protein expression preincubated for 2 hrs followed by LPS-stimulation and measured after 24 hrs by Western blot analysis. In kind it is functional, cell-based. Conditions: dose 3.3-33 µM, time 26.0 hrs.
The subject of a further assay is Bacillus subtilis. Put plainly: Antibacterial activity against Bacillus subtilis ATCC 6633 after 24 hrs by microbroth dilution method. In kind it is functional.
The next assay concerns Staphylococcus aureus. Put plainly: Antibacterial activity against Staphylococcus aureus ATCC 25923 after 24 hrs by microbroth dilution method. In kind it is functional.
The test system of the next assay is Escherichia coli. Put plainly: Antibacterial activity against Escherichia coli ATCC 25922 after 24 hrs by microbroth dilution method. In kind it is functional.
The subject of another assay is Candida albicans. Put plainly: Antifungal activity against Candida albicans MYA-2867 at 100 ug/ml after 48 hrs by microbroth dilution method. In kind it is functional, organism-based. The conditions noted are these: dose 100.0 µg/ml.
In a further assay the test system is Candida parapsilosis. Put plainly: Antifungal activity against Candida parapsilosis ATCC 22019 at 100 ug/ml after 48 hrs by microbroth dilution method. In kind it is functional, organism-based. The conditions noted are these: dose 100.0 µg/ml.
Another assay has as its system Cryptococcus neoformans. Put plainly: Antifungal activity against Cryptococcus neoformans ATCC 208821 at 100 ug/ml after 72 hrs by microbroth dilution method. In kind it is functional, organism-based. The conditions noted are these: dose 100.0 µg/ml.

In brackets after ≈: the same amount, converted by molar mass. Activity calls are given as the source filed them. No cut-off for these calls is given here.

As to `COc1ccc(C(=O)Cc2ccc(O)cc2)c(O)c1`, the inhibition entry in the assay on RAW264.7 [1] and in the assay on RAW264.7 [2] was “Dose-dependent effect” in each case.
For the compound `COC(=O)[C@]1(O)C=Cc2cnc(C(N)=O)cc21`, the MIC with Bacillus subtilis, with Staphylococcus aureus and in the assay on Escherichia coli was 25 µg/mL (≈ 107 µM) in each case. Also, the outcome in the assay with Candida albicans, in the assay with Candida parapsilosis and with Cryptococcus neoformans was inactive. For the same compound, the inhibition result with RAW264.7 [1] and with RAW264.7 [2] was “Dose-dependent effect” throughout.
In the case of `CO[C@@H]1CC(=O)c2cc(C(N)=O)ncc21`, the MIC in the assay on Bacillus subtilis, against Staphylococcus aureus and with Escherichia coli was 25 µg/mL (≈ 121 µM) throughout. Further, the result in the assay with Candida albicans, in the assay on Candida parapsilosis and with Cryptococcus neoformans was inactive.
In the case of `NC(=O)c1cc2c(cn1)CCC2=O`, the MIC with Bacillus subtilis, against Staphylococcus aureus and against Escherichia coli was 25 µg/mL (≈ 142 µM) each time. The outcome in the assay on Candida albicans, in the assay on Candida parapsilosis and in the assay with Cryptococcus neoformans was inactive.
